Results taken from US20190374627A1, “TARGET PEPTIDES FOR CANCER THERAPY AND DIAGNOSTICS” (priority 2016, published 2019).
Square brackets hold non-standard residues; d marks the D form. Ends that are not written are not given here. pT = C[C@@H](OP(=O)(O)O)[C@H](N)C(=O)O; pS = N[C@@H](COP(=O)(O)O)C(=O)O

Experiments:
CD8^+ T cells (PBMCs) = experiment: Intracellular cytokine staining (ICS) of PBMCs after 7 days of stimulation with MHC-I-pP (healthy donors, HH patients); type: cell-based, human; conditions: for Reactive CD8^+ T cell population, HH2: HH patient HH2; for Reactive CD8^+ T cell population, HH3: HH patient HH3; for Reactive CD8^+ T cell population, HH6: HH patient HH6; for Reactive CD8^+ T cell population, HH8: HH patient HH8; for Reactive CD8^+ T cell population, HH11: HH patient HH11; for Reactive CD8^+ T cell population, HD1: Healthy donor HD1; for Reactive CD8^+ T cell population, HD4: Healthy donor HD4; for Reactive CD8^+ T cell population, HD5: Healthy donor HD5
Experimental: From this, CD8^+ T cell responses against newly identified MHC class I-associated phosphopeptides in healthy individuals and patients with chronic liver disease were investigated. Twenty-one of the newly identified HCC-associated HLA-A*0201-restricted phosphopeptides were selected (see Table 17) for further immunological testing in HLA-A*0201 positive patients. MHC-I-pP-specific cytotoxic CD8^+ T cell responses (ppCTL) were assessed using intracellular cytokine staining (ICS) and several cytokines and surface markers were assessed in parallel. After 7 days of stimulation with the respective MHC-I-pP and no other cytokines, CD3- and CD8-expressing T cells were stained for at least two different cytokines (IFN-γ, TNF-α) and when required CD107a expression as a marker for their cytotoxic potential.
First, peripheral blood mononuclear cells (PBMCs) from healthy donors and patients with hereditary hemochromatosis (HH) were analyzed. HH is a chronic liver disease characterized by excessive intestinal absorption of dietary iron resulting in a pathological deposition of iron in the liver. PBMCs or lymphocytes from liver tissue were extracted and specifically stimulated with (phospho-) peptides for 7 days before intracellular cytokine staining (ICS). Doublets and dead cells, using a fixable viability dye, were excluded. Lymphocytes were gated on CD3^+ and CD8^+ double positive cells and were analysed for expression of IFNγ, TNFα-, and CD107a.

[1] = test system: unexpanded lymphocyte cultures (CD8^+ T cells); experiment: ICS for MHC-I-pP reactivity of lymphocyte cultures without expansion (Table 23, No Expansion)
[2] = test system: expanded lymphocyte cultures from deceased donor livers, cirrhotic livers and HCC; experiment: ICS for MHC-I-pP reactivity of liver-derived lymphocyte cultures after phosphopeptide-specific expansion; type: cell-based, human; conditions: for ppCTL response, Deceased Donor Liver Do 2 / ppCTL response, Deceased Donor Liver Do 3 / ppCTL response, Deceased Donor Liver Do 4 / ppCTL response, Deceased Donor Liver Do 6 / ppCTL response, End-stage Liver Cirrhosis IHL 11 / ppCTL response, End-stage Liver Cirrhosis IHL 12 / ppCTL response, End-stage Liver Cirrhosis IHL 13 / ppCTL response, End-stage Liver Cirrhosis IHL 15 / ppCTL response, HCC Distal HCC 1 / ppCTL response, HCC Tumor HCC 1 / ppCTL response, HCC Distal HCC 4 / ppCTL response, HCC Distal HCC 9 / ppCTL response, HCC Tumor HCC 9 / ppCTL response, HCC Distal HCC 12: pP-specifically expanded culture; for ppCTL response, HCC Distal HCC 1: HCC 1 Distal; for ppCTL response, HCC Tumor HCC 1: HCC 1 Tumor; for ppCTL response, HCC Distal HCC 4: HCC 4 Distal; for ppCTL response, HCC Distal HCC 9: HCC 9 Distal; for ppCTL response, HCC Tumor HCC 9: HCC 9 Tumor; for ppCTL response, HCC Distal HCC 12: HCC 12 Distal
[3] = test system: expanded TIL / IHL cultures; experiment: ICS for MHC-I-pP reactivity of liver-derived lymphocyte cultures after unspecific rapid expansion protocol (REP); type: cell-based, human

| Substance | Reactive CD8^+ T cell population, HH2 (CD8^+ T cells (PBMCs)) | Reactive CD8^+ T cell population, HH3 (CD8^+ T cells (PBMCs)) | Reactive CD8^+ T cell population, HH6 (CD8^+ T cells (PBMCs)) | Reactive CD8^+ T cell population, HH8 (CD8^+ T cells (PBMCs)) | Reactive CD8^+ T cell population, HH11 (CD8^+ T cells (PBMCs)) | Reactive CD8^+ T cell population, HD1 (CD8^+ T cells (PBMCs)) | Reactive CD8^+ T cell population, HD4 (CD8^+ T cells (PBMCs)) | Reactive CD8^+ T cell population, HD5 (CD8^+ T cells (PBMCs)) | Reactive CD8^+ T cells, No Expansion, HH6 [1] | Reactive CD8^+ T cells, pP-specific Expansion, Do2 [2] | Reactive CD8^+ T cells, pP-specific Expansion, Do4 [2] | Reactive CD8^+ T cells, pP-specific Expansion, HH6 [2] | ppCTL response, Deceased Donor Liver Do 2 [2] | ppCTL response, Deceased Donor Liver Do 3 [2] | ppCTL response, Deceased Donor Liver Do 4 [2] | ppCTL response, Deceased Donor Liver Do 6 [2] | ppCTL response, End-stage Liver Cirrhosis IHL 11 [2] | ppCTL response, End-stage Liver Cirrhosis IHL 12 [2] | ppCTL response, End-stage Liver Cirrhosis IHL 13 [2] | ppCTL response, End-stage Liver Cirrhosis IHL 15 [2] | other results |
| --- | --- | --- | --- | --- | --- | --- | --- | --- | --- | --- | --- | --- | --- | --- | --- | --- | --- | --- | --- | --- | --- |
| RLSsPLHFV: FAM134A phosphopeptide, HLA-A*0201 (RLS[pS]PLHFV; listed as Homo sapiens) | 1 (0.25-2.5% reactive CD8^-+ T cells) | 0 (<0.25% reactive CD8^-+ T cells) | 0 (<0.25% reactive CD8^-+ T cells) | 0 (<0.25% reactive CD8^-+ T cells) | 0 (<0.25% reactive CD8^-+ T cells) | 0 (<0.25% reactive CD8^-+ T cells) | 0 (<0.25% reactive CD8^-+ T cells) | 0 (<0.25% reactive CD8^-+ T cells) | 0 (<0.25% reactive CD8^-+ T cells) | 0 (<0.25% reactive CD8^-+ T cells) | 0 (<0.25% reactive CD8^-+ T cells) | 0 (<0.25% reactive CD8^-+ T cells) | 0 (<0.25% reactive CD8-+ T cells) | 0 (<0.25% reactive CD8-+ T cells) | 0 (<0.25% reactive CD8-+ T cells) | 0 (<0.25% reactive CD8-+ T cells) | 0 (<0.25% reactive CD8-+ T cells) | 0 (<0.25% reactive CD8-+ T cells) | 0 (<0.25% reactive CD8-+ T cells) | 0 (<0.25% reactive CD8-+ T cells) | ppCTL response, HCC Distal HCC 1 [2]: 0 (<0.25% reactive CD8-+ T cells); ppCTL response, HCC Tumor HCC 1 [2]: 0 (<0.25% reactive CD8-+ T cells); ppCTL response, HCC Distal HCC 4 [2]: 0 (<0.25% reactive CD8-+ T cells); ppCTL response, HCC Distal HCC 9 [2]: 0 (<0.25% reactive CD8-+ T cells); ppCTL response, HCC Tumor HCC 9 [2]: 0 (<0.25% reactive CD8-+ T cells); ppCTL response, HCC Distal HCC 12 [2]: 0 (<0.25% reactive CD8-+ T cells); Reactive CD8^+ T cells, Non-specific Expansion, Do2 [3]: 0 (<0.25% reactive CD8^-+ T cells); Reactive CD8^+ T cells, Non-specific Expansion, Do4 [3]: 0 (<0.25% reactive CD8^-+ T cells); Reactive CD8^+ T cells, Non-specific Expansion, HH6 [3]: 0 (<0.25% reactive CD8^-+ T cells) |
| FLDtPIAKV: NKD1 phosphopeptide, HLA-A*0201 (FLD[pT]PIAKV; listed as Homo sapiens) | 0 (<0.25% reactive CD8^-+ T cells) | 0 (<0.25% reactive CD8^-+ T cells) | 0 (<0.25% reactive CD8^-+ T cells) | 0 (<0.25% reactive CD8^-+ T cells) | 0 (<0.25% reactive CD8^-+ T cells) | 0 (<0.25% reactive CD8^-+ T cells) | 0 (<0.25% reactive CD8^-+ T cells) | 0 (<0.25% reactive CD8^-+ T cells) | 0 (<0.25% reactive CD8^-+ T cells) | 0 (<0.25% reactive CD8^-+ T cells) | 0 (<0.25% reactive CD8^-+ T cells) | 2 (2.5-5.0% reactive CD8^-+ T cells) | 0 (<0.25% reactive CD8-+ T cells) | 0 (<0.25% reactive CD8-+ T cells) | 0 (<0.25% reactive CD8-+ T cells) | 0 (<0.25% reactive CD8-+ T cells) | 0 (<0.25% reactive CD8-+ T cells) | 0 (<0.25% reactive CD8-+ T cells) | 0 (<0.25% reactive CD8-+ T cells) | 0 (<0.25% reactive CD8-+ T cells) | ppCTL response, HCC Distal HCC 1 [2]: 0 (<0.25% reactive CD8-+ T cells); ppCTL response, HCC Tumor HCC 1 [2]: 0 (<0.25% reactive CD8-+ T cells); ppCTL response, HCC Distal HCC 4 [2]: 0 (<0.25% reactive CD8-+ T cells); ppCTL response, HCC Distal HCC 9 [2]: 0 (<0.25% reactive CD8-+ T cells); ppCTL response, HCC Tumor HCC 9 [2]: 0 (<0.25% reactive CD8-+ T cells); ppCTL response, HCC Distal HCC 12 [2]: 0 (<0.25% reactive CD8-+ T cells); Reactive CD8^+ T cells, Non-specific Expansion, Do2 [3]: 1 (0.25-2.5% reactive CD8^-+ T cells); Reactive CD8^+ T cells, Non-specific Expansion, Do4 [3]: 0 (<0.25% reactive CD8^-+ T cells); Reactive CD8^+ T cells, Non-specific Expansion, HH6 [3]: 0 (<0.25% reactive CD8^-+ T cells) |
| VMIGsPKKV: TNS3 phosphopeptide, HLA-A*0201 (VMIG[pS]PKKV; listed as Homo sapiens) | 0 (<0.25% reactive CD8^-+ T cells) | 0 (<0.25% reactive CD8^-+ T cells) | 0 (<0.25% reactive CD8^-+ T cells) | 0 (<0.25% reactive CD8^-+ T cells) | 0 (<0.25% reactive CD8^-+ T cells) | 0 (<0.25% reactive CD8^-+ T cells) | 0 (<0.25% reactive CD8^-+ T cells) | 0 (<0.25% reactive CD8^-+ T cells) | 0 (<0.25% reactive CD8^-+ T cells) | 1 (0.25-2.5% reactive CD8^-+ T cells) | 0 (<0.25% reactive CD8^-+ T cells) | 0 (<0.25% reactive CD8^-+ T cells) | 2 (2.5-5.0% reactive CD8-+ T cells) | 0 (<0.25% reactive CD8-+ T cells) | 0 (<0.25% reactive CD8-+ T cells) | 0 (<0.25% reactive CD8-+ T cells) | 0 (<0.25% reactive CD8-+ T cells) | 0 (<0.25% reactive CD8-+ T cells) | 0 (<0.25% reactive CD8-+ T cells) | 0 (<0.25% reactive CD8-+ T cells) | Reactive CD8^+ T cell population, HH10 (CD8^+ T cells (PBMCs); HH patient HH10): 1 (0.25-2.5% reactive CD8^-+ T cells); Reactive CD8^+ T cell population, HD2 (CD8^+ T cells (PBMCs); Healthy donor HD2): 0 (<0.25% reactive CD8^-+ T cells); Reactive CD8^+ T cell population, HD3 (CD8^+ T cells (PBMCs); Healthy donor HD3): 0 (<0.25% reactive CD8^-+ T cells); Reactive CD8^+ T cells, No Expansion, Do4 ([1]; Do4): 0 (<0.25% reactive CD8^-+ T cells); ppCTL response, HCC Distal HCC 1 [2]: 0 (<0.25% reactive CD8-+ T cells); ppCTL response, HCC Tumor HCC 1 [2]: 0 (<0.25% reactive CD8-+ T cells); ppCTL response, HCC Distal HCC 4 [2]: 0 (<0.25% reactive CD8-+ T cells); ppCTL response, HCC Distal HCC 9 [2]: 0 (<0.25% reactive CD8-+ T cells); ppCTL response, HCC Tumor HCC 9 [2]: 0 (<0.25% reactive CD8-+ T cells); ppCTL response, HCC Distal HCC 12 [2]: 0 (<0.25% reactive CD8-+ T cells); Reactive CD8^+ T cells, Non-specific Expansion, Do2 [3]: 0 (<0.25% reactive CD8^-+ T cells); Reactive CD8^+ T cells, Non-specific Expansion, Do4 [3]: 0 (<0.25% reactive CD8^-+ T cells); Reactive CD8^+ T cells, Non-specific Expansion, HH6 [3]: 0 (<0.25% reactive CD8^-+ T cells) |
